Measurements reported in PubChem BioAssay AID1918933 (Molecular Pharmacology Branch, DTP, NCI, 2023).

System: 186277-243-T-J2-PDC complex spheroid viability
Assay: Anticancer human tumor 186277-243-T-J2-PDC patient-derived colon adenocarcinoma cell line growth inhibition
Conditions: for IC50: curve of first compound; for viability, T/C: stronger effect = lower value
In short: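 Drug combinations with the LSD1 inhibitor iadademstat tested on tumor cells co-cultured as spheroids with endothelial cells and mesenchymal stem cells. Concentrations descended in half-log increments from clinical Cmax or 10 microM.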

[1] = second compound 0.1 µM, first compound 0.00316 µM
[2] = second compound 0.1 µM, first compound 0.01 µM
[3] = second compound 0.1 µM, first compound 0.0316 µM
[4] = second compound 0.1 µM, first compound 0.1 µM
[5] = second compound 0.1 µM, first compound 0.316 µM
[6] = second compound 0.1 µM, first compound 1 µM
[7] = second compound 0.316 µM, first compound 0.00316 µM
[8] = second compound 0.316 µM, first compound 0.01 µM
[9] = second compound 0.316 µM, first compound 0.0316 µM
[10] = second compound 0.316 µM, first compound 0.1 µM
[11] = second compound 0.316 µM, first compound 0.316 µM
[12] = second compound 0.316 µM, first compound 1 µM
[13] = second compound 1 µM, first compound 0.00316 µM
[14] = second compound 1 µM, first compound 0.01 µM
[15] = second compound 1 µM, first compound 0.0316 µM
[16] = second compound 1 µM, first compound 0.1 µM
[17] = second compound 1 µM, first compound 0.316 µM
[18] = second compound 1 µM, first compound 1 µM
[19] = second compound 3.16 µM, first compound 0.00316 µM
[20] = second compound 3.16 µM, first compound 0.01 µM
[21] = second compound 3.16 µM, first compound 0.0316 µM
[22] = second compound 3.16 µM, first compound 0.1 µM
[23] = second compound 3.16 µM, first compound 0.316 µM
[24] = second compound 3.16 µM, first compound 1 µM
[25] = second compound 10 µM, first compound 0.00316 µM
[26] = second compound 10 µM, first compound 0.01 µM
[27] = second compound 10 µM, first compound 0.0316 µM
[28] = second compound 10 µM, first compound 0.1 µM
[29] = second compound 10 µM, first compound 0.316 µM
[30] = second compound 10 µM, first compound 1 µM
[31] = second compound 0.1 µM, first compound 0.00949 µM
[32] = second compound 0.1 µM, first compound 0.03 µM
[33] = second compound 0.1 µM, first compound 0.0949 µM
[34] = second compound 0.1 µM, first compound 0.3 µM
[35] = second compound 0.316 µM, first compound 0.00949 µM
[36] = second compound 0.316 µM, first compound 0.03 µM
[37] = second compound 0.316 µM, first compound 0.0949 µM
[38] = second compound 0.316 µM, first compound 0.3 µM
[39] = second compound 1 µM, first compound 0.00949 µM
[40] = second compound 1 µM, first compound 0.03 µM
[41] = second compound 1 µM, first compound 0.0949 µM
[42] = second compound 1 µM, first compound 0.3 µM
[43] = second compound 3.16 µM, first compound 0.00949 µM
[44] = second compound 3.16 µM, first compound 0.03 µM
[45] = second compound 3.16 µM, first compound 0.0949 µM
[46] = second compound 3.16 µM, first compound 0.3 µM
[47] = second compound 10 µM, first compound 0.00949 µM
[48] = second compound 10 µM, first compound 0.03 µM
[49] = second compound 10 µM, first compound 0.0949 µM
[50] = second compound 10 µM, first compound 0.3 µM
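Further: 7 day exposure to compounds.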
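Wherever viability, T/C is given: 100% = DMSO vehicle control viability.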

SMILES: CC1COCCN1c1cc(-c2ccnn2C)c2ccnc(-c3ccn[nH]3)c2n1 (stereo not given) + NC1CC1c1ccc(-c2cccc(O)c2)cc1
- IC50 (second compound 0.1 µM): < 3.16 nM
- IC50 (second compound 0.316 µM): < 3.16 nM
- IC50 (second compound 1 µM): < 3.16 nM
- IC50 (second compound 3.16 µM): < 3.16 nM
- IC50 (second compound 10 µM): < 3.16 nM
- viability, T/C [1]: 20.3%
- viability, T/C [2]: 15.9%
- viability, T/C [3]: 9.71%
- viability, T/C [4]: 8.39%
- viability, T/C [5]: 9.56%
- viability, T/C [6]: 6.55%
- viability, T/C [7]: 19.9%
- viability, T/C [8]: 16.7%
- viability, T/C [9]: 10.2%
- viability, T/C [10]: 8.74%
- viability, T/C [11]: 8.51%
- viability, T/C [12]: 6.53%
- viability, T/C [13]: 20.7%
- viability, T/C [14]: 15.4%
- viability, T/C [15]: 10.2%
- viability, T/C [16]: 7.9%
- viability, T/C [17]: 8.7%
- viability, T/C [18]: 5.94%
- viability, T/C [19]: 22.6%
- viability, T/C [20]: 17.3%
- viability, T/C [21]: 10.9%
- viability, T/C [22]: 8.9%
- viability, T/C [23]: 9.05%
- viability, T/C [24]: 6.86%
- viability, T/C [25]: 18%
- viability, T/C [26]: 15.5%
- viability, T/C [27]: 10.1%
- viability, T/C [28]: 8.33%
- viability, T/C [29]: 8.45%
- viability, T/C [30]: 7.35%

SMILES: CC1COCCN1c1cc(C2(S(C)(=N)=O)CC2)nc(-c2ccnc3[nH]ccc23)n1 (stereo not given) + NC1CC1c1ccc(-c2cccc(O)c2)cc1
- IC50 (second compound 0.1 µM): 1060 nM
- IC50 (second compound 0.316 µM): 1140 nM
- IC50 (second compound 1 µM): 1270 nM
- IC50 (second compound 3.16 µM): 1190 nM
- IC50 (second compound 10 µM): 872 nM
- viability, T/C [3]: 102%
- viability, T/C [4]: 99.8%
- viability, T/C [5]: 99.6%
- viability, T/C [6]: 52.1%
- viability, T/C (second compound 0.1 µM, first compound 3.16 µM): 9.5%
- viability, T/C (second compound 0.1 µM, first compound 10 µM): 5.47%
- viability, T/C [9]: 95.4%
- viability, T/C [10]: 97.8%
- viability, T/C [11]: 92.2%
- viability, T/C [12]: 55%
- viability, T/C (second compound 0.316 µM, first compound 3.16 µM): 10.5%
- viability, T/C (second compound 0.316 µM, first compound 10 µM): 5.49%
- viability, T/C [15]: 108%
- viability, T/C [16]: 108%
- viability, T/C [17]: 105%
- viability, T/C [18]: 59.5%
- viability, T/C (second compound 1 µM, first compound 3.16 µM): 12.5%
- viability, T/C (second compound 1 µM, first compound 10 µM): 5.36%
- viability, T/C [21]: 104%
- viability, T/C [22]: 104%
- viability, T/C [23]: 109%
- viability, T/C [24]: 57.5%
- viability, T/C (second compound 3.16 µM, first compound 3.16 µM): 11.6%
- viability, T/C (second compound 3.16 µM, first compound 10 µM): 6.19%
- viability, T/C [27]: 106%
- viability, T/C [28]: 89.6%
- viability, T/C [29]: 92.7%
- viability, T/C [30]: 44.3%
- viability, T/C (second compound 10 µM, first compound 3.16 µM): 8%
- viability, T/C (second compound 10 µM, first compound 10 µM): 4.85%

SMILES: CCN(c1cc(-c2ccc(CN3CCOCC3)cc2)cc(C(=O)NCc2c(C)cc(C)[nH]c2=O)c1C)C1CCOCC1 + NC1CC1c1ccc(-c2cccc(O)c2)cc1
- IC50 (second compound 0.1 µM): 2220 nM
- IC50 (second compound 0.316 µM): 2280 nM
- IC50 (second compound 1 µM): 2190 nM
- IC50 (second compound 3.16 µM): 2220 nM
- IC50 (second compound 10 µM): 2010 nM
- viability, T/C [31]: 92%
- viability, T/C [32]: 113%
- viability, T/C [33]: 113%
- viability, T/C [34]: 112%
- viability, T/C (second compound 0.1 µM, first compound 0.949 µM): 123%
- viability, T/C (second compound 0.1 µM, first compound 3 µM): 28.4%
- viability, T/C [35]: 107%
- viability, T/C [36]: 113%
- viability, T/C [37]: 129%
- viability, T/C [38]: 120%
- viability, T/C (second compound 0.316 µM, first compound 0.949 µM): 120%
- viability, T/C (second compound 0.316 µM, first compound 3 µM): 28.6%
- viability, T/C [39]: 104%
- viability, T/C [40]: 111%
- viability, T/C [41]: 121%
- viability, T/C [42]: 116%
- viability, T/C (second compound 1 µM, first compound 0.949 µM): 120%
- viability, T/C (second compound 1 µM, first compound 3 µM): 25.8%
- viability, T/C [43]: 106%
- viability, T/C [44]: 113%
- viability, T/C [45]: 111%
- viability, T/C [46]: 108%
- viability, T/C (second compound 3.16 µM, first compound 0.949 µM): 124%
- viability, T/C (second compound 3.16 µM, first compound 3 µM): 27.8%
- viability, T/C [47]: 100%
- viability, T/C [48]: 99.7%
- viability, T/C [49]: 88.4%
- viability, T/C [50]: 107%
- viability, T/C (second compound 10 µM, first compound 0.949 µM): 103%
- viability, T/C (second compound 10 µM, first compound 3 µM): 23.5%

SMILES: Nc1ncn(C2CC(O)C(CO)S2)c(=O)n1 (stereo not given) + NC1CC1c1ccc(-c2cccc(O)c2)cc1
- IC50 (second compound 0.1 µM): 105 nM
- IC50 (second compound 0.316 µM): 88.8 nM
- IC50 (second compound 1 µM): 91.4 nM
- IC50 (second compound 3.16 µM): 97.4 nM
- IC50 (second compound 10 µM): 79.5 nM
- viability, T/C (second compound 0.1 µM, first compound 0.000949 µM): 113%
- viability, T/C (second compound 0.1 µM, first compound 0.003 µM): 123%
- viability, T/C [31]: 125%
- viability, T/C [32]: 143%
- viability, T/C [33]: 53.8%
- viability, T/C [34]: 10.9%
- viability, T/C (second compound 0.316 µM, first compound 0.000949 µM): 103%
- viability, T/C (second compound 0.316 µM, first compound 0.003 µM): 119%
- viability, T/C [35]: 110%
- viability, T/C [36]: 129%
- viability, T/C [37]: 46%
- viability, T/C [38]: 9.74%
- viability, T/C (second compound 1 µM, first compound 0.000949 µM): 102%
- viability, T/C (second compound 1 µM, first compound 0.003 µM): 106%
- viability, T/C [39]: 130%
- viability, T/C [40]: 128%
- viability, T/C [41]: 47.7%
- viability, T/C [42]: 10.7%
- viability, T/C (second compound 3.16 µM, first compound 0.000949 µM): 113%
- viability, T/C (second compound 3.16 µM, first compound 0.003 µM): 111%
- viability, T/C [43]: 105%
- viability, T/C [44]: 137%
- viability, T/C [45]: 50.9%
- viability, T/C [46]: 10.3%
- viability, T/C (second compound 10 µM, first compound 0.000949 µM): 93.8%
- viability, T/C (second compound 10 µM, first compound 0.003 µM): 94.1%
- viability, T/C [47]: 104%
- viability, T/C [48]: 107%
- viability, T/C [49]: 41%
- viability, T/C [50]: 8.69%

SMILES: O=C(C=Cn1cnc(-c2cc(C(F)(F)F)cc(C(F)(F)F)c2)n1)NNc1cnccn1 + NC1CC1c1ccc(-c2cccc(O)c2)cc1
- IC50 (second compound 0.1 µM): 56.5 nM
- IC50 (second compound 0.316 µM): 57.2 nM
- IC50 (second compound 1 µM): 60 nM
- IC50 (second compound 3.16 µM): 58.4 nM
- IC50 (second compound 10 µM): 52.5 nM
- viability, T/C [1]: 97.5%
- viability, T/C [2]: 96%
- viability, T/C [3]: 84.8%
- viability, T/C [4]: 15.7%
- viability, T/C [5]: 2.81%
- viability, T/C [6]: 1.29%
- viability, T/C [7]: 104%
- viability, T/C [8]: 105%
- viability, T/C [9]: 88.3%
- viability, T/C [10]: 13.8%
- viability, T/C [11]: 2.94%
- viability, T/C [12]: 1.28%
- viability, T/C [13]: 104%
- viability, T/C [14]: 106%
- viability, T/C [15]: 93.1%
- viability, T/C [16]: 15.5%
- viability, T/C [17]: 3.14%
- viability, T/C [18]: 1.35%
- viability, T/C [19]: 110%
- viability, T/C [20]: 116%
- viability, T/C [21]: 91%
- viability, T/C [22]: 14%
- viability, T/C [23]: 2.92%
- viability, T/C [24]: 1.47%
- viability, T/C [25]: 94.1%
- viability, T/C [26]: 95.2%
- viability, T/C [27]: 78.8%
- viability, T/C [28]: 13.3%
- viability, T/C [29]: 3.41%
- viability, T/C [30]: 1.57%
